Laboratory results taken from patent publication US12133855B2, “Lipid-like nanocomplexes and uses thereof” (Trustees of Tufts College, priority 2018, dated 2024).

Experiments:
HeLa cells [1] = assay: Internalization of Nile red loaded nanoparticles (NR+ cells); format: cell-based; settings: 4 h of exposure
[2] = Thiol-triggered size variation of OCholB LNPs (DTT, cysteine; DLS); format: physicochemical; settings: for decrease in size: 20 μM L-cysteine, 6 h of incubation; for increase of relative size: first 2 h; for increase in averaged hydrodynamic diameter: 24 h
Excerpt: The thiol-trigged degradation and dissociation of the OCholB LNPs were studied by time-dependent DLS measurements and TEM observation. […] The disruption of the vesicle structure is considered to be resulted from the thiol-exchange and disulfide bond cleavage reactions of OCholB lipidoids. We next investigated whether the thiol-containing molecules (e.g. albumin, cysteine, homocysteine, cysteinylglycine, etc.) in the serum may induce the structural disintegration of these disulfide bond-containing LNPs. The stabilities of LNPs in the presence of 20 μM of L-cysteine (Cys), which mimics the free thiols on the small- and macromolecules presented in the serum, were examined. […] While the degrees of size changes vary between lipidoids with different amine head groups, all lipidoids were more responsive to DTT (modeling intracellular conditions) than to Cysteine (modeling conditions in the blood serum).

HeLa cells [3] = assay: MTT cytotoxicity of mRNA-loaded nanoparticles; format: cell-based; settings: for cell morphology (bright field images): 24 h of exposure; for cell viability: GFP mRNA loaded, lipidoid/mRNA=10/1, [mRNA]=0.86 μg mL^−1, 24 h
Protocol: All experiments were performed in quadruplicate.
Next, the MTT assay was conducted to examine the cytotoxicity of mRNA-loaded nanoparticles against HeLa cells.

[4] = In vivo toxicity of blank OCholB LNPs (body weight, serum biochemistry); set-up: species or system Balb/c mice; settings: blank LNPs 50 μg per injection, tail vein; for serum concentrations of creatinine, urea, AST and ALT: day 1 and 5, blood at day 14; for body weight vs untreated control group: day 1 and day 5, 14 days
Protocol: For in vivo toxicity studies, the body weights of untreated and nanoparticles injected Balb/c mice (housed in a temperature and humidity controlled facility with a 12 h light/dark cycle) were measured at day 1, 3, 5, 7, 9, 11, 13 and 14. Biological functions of kidney and liver were examined by the serum biochemical tests and concentrations of creatinine, urea, aspartate aminotransferase (AST), and alanine aminotransferase (ALT) were measured using corresponding detection kits (MilliporeSigma) following manufacturers' protocols.
The in vivo toxicity of the OCholB LNPs was further examined by measuring body weight change and biological functions of kidney and liver through serum biochemical tests using Balb/c mice. 4-6 weeks old Balb/c mice (n=3) were injected with blank 75-OCholB, 76-OCholB and 77-OCholB LNPs (50 μg LNPs for each injection) through tail vein at day 1 and day 5, body weights were monitored for 14 days, and blood were collected and analyzed at day 14.

HeLa-DsRed cells = assay: Cre mRNA delivery (DsRed+ cells); format: cell-based; settings: lipidoid/mRNA=10/1, [mRNA]=0.86 μg mL^−1, 24 h
Protocol: Next, the possibility of using OCholB LNPs to deliver mRNA for genome editing (Cre-loxP and CRISPR/Cas9 systems) purposes was examined. First, Cre mRNA was complexed with OCholB LNPs and tested against HeLa-DsRed cells. The HeLa-DsRed cells express red fluorescent protein, DsRed, only upon Cre protein-mediated recombination. After 24 h of incubation with mRNA/LNPs (lipidoid/mRNA=10/1; [mRNA]=0.86 μg mL^−1), the DsRed^+ cell portions were determined by flow cytometry. […] Then the Cas9 mRNA that expresses a version of Streptococcus pyogenes SF370 Cas9 protein with an N and C terminal nuclear localization signal (NLS) were loaded into LNPs, along with single-guide RNA (sgRNA) that targets a sequence on GFP gene. GFP-HEK cells which steadily express GFP proteins were used a cell model in this case. GFP-cells, indicating a successful Cas9-mediated knockdown of GFP expression, were analyzed using flow cytometry. […] This was also found to be applicable to protein delivery in our previous studies.
In this context, two strategies were tested, i.e., synthesizing new OCholB-tailed lipidoids with single tail rather than full substitution, and adding helper lipids (phospholipids) into fully substituted OCholB LNPs. Single-tailed lipidoids, 75-OCholB-1, 76-OCholB-1 and […] at first following similar protocols as described before and characterized by ESI-MS ([75-OCholB-1+H]^+, 736.55; [76-OCholB-1+H]^+, 734.64; [77-OCholB-1+H]^+, 748.73). Nanoparticles were than fabricated using the same sonication/vortex procedures and the obtained LNPs were measured by DLS (75-OCholB-1, <Dh>=302.6 nm, μ2/I^2=0.30; 76-OCholB-1, <Dh>=294.5 nm, μ2/I^2=0.30; 77-OCholB-1, <Dh>=254.2 nm, μ2/I^2=0.33). […] 69.4%, 72.5% and 68.9% of GFP^+ cells were determined for mRNA/75-OCholB-1, mRNA/76-OCholB-1 and mRNA/77-OCholB-1 treated HeLa cells, respectively. Cre mRNA could also be efficiently delivered into HeLa-DsRed cells, as 87.3% (mRNA/75-OCholB-1), 82.8% (mRNA/76-OCholB-1) and 81.5% (mRNA/77-OCholB-1) of cells were determined to be DsRed^+ after 24 h of exposure (FIG. 14G). […]

## CC(C)CCCC(C)C1CCC2C3CC=C4CC(OC(=O)NCCSSCCOC(=O)CCN(CCC(=O)OCCSSCCNC(=O)OC5CCC6(C)C(=CCC7C6CCC6(C)C(C(C)CCCC(C)C)CCC76)C5)CCN5CCCC5)CCC4(C)C3CCC12C (stereo not shown) [Lipidoid 76-OCholB]
HeLa cells [1]
  NR^+ cells: 65.0%
[2]
  decrease in size: 14.6%
[2]; 10 mM DTT
  increase of relative size: 498.5%
HeLa cells [3]
  cell morphology (bright field images): no obvious variations
  cell viability: 94.5%
[4]
  serum concentrations of creatinine, urea, AST and ALT: very similar to control mice
  body weight vs untreated control group: negligible differences
HeLa-DsRed cells
  DsRed^+ cells: 48.7%

## CCN(CC)CCN(CCC(=O)OCCSSCCNC(=O)OC1CCC2(C)C(=CCC3C2CCC2(C)C(C(C)CCCC(C)C)CCC32)C1)CCC(=O)OCCSSCCNC(=O)OC1CCC2(C)C(=CCC3C2CCC2(C)C(C(C)CCCC(C)C)CCC32)C1 (stereo not shown) [Lipidoid 75-OCholB]
HeLa cells [1]
  NR^+ cells: 85.2%
[2]
  decrease in size: 12.2%
[2]; 10 mM DTT, 6 h
  increase in size: 1315.7%
[2]; 10 mM DTT
  increase in averaged hydrodynamic diameter: 2872.4%
  increase of relative size: 566.4%
HeLa cells [3]
  cell morphology (bright field images): no obvious variations
  cell viability: 84.7%
[4]
  serum concentrations of creatinine, urea, AST and ALT: very similar to control mice
  body weight vs untreated control group: negligible differences
HeLa-DsRed cells
  DsRed^+ cells: 67.2%

## CC(C)CCCC(C)C1CCC2C3CC=C4CC(OC(=O)NCCSSCCOC(=O)CCN(CCC(=O)OCCSSCCNC(=O)OC5CCC6(C)C(=CCC7C6CCC6(C)C(C(C)CCCC(C)C)CCC76)C5)CCN(C)C)CCC4(C)C3CCC12C (stereo not shown) [Lipidoid 78-OCholB]
[2]; 10 mM DTT
  increase in averaged hydrodynamic diameter: 4642.8%

## CC(C)CCCC(C)C1CCC2C3CC=C4CC(OC(=O)NCCSSCCOC(=O)CCN(CCC(=O)OCCSSCCNC(=O)OC5CCC6(C)C(=CCC7C6CCC6(C)C(C(C)CCCC(C)C)CCC76)C5)CCC5CCCN5C)CCC4(C)C3CCC12C (stereo not shown) [Lipidoid 77-OCholB]
HeLa cells [1]
  NR^+ cells: 90.3%
[2]
  decrease in size: 7.2%
[2]; 10 mM DTT
  increase of relative size: 1591.4%
HeLa cells [3]
  cell morphology (bright field images): no obvious variations
  cell viability: 100.1%
[4]
  serum concentrations of creatinine, urea, AST and ALT: very similar to control mice
  body weight vs untreated control group: negligible differences
HeLa-DsRed cells
  DsRed^+ cells: 72.8%

## CC(C)CCCC(C)C1CCC2C3CC=C4CC(OC(=O)NCCSSCCOC(=O)CCN(C)CCN(CCN(C)CCC(=O)OCCSSCCNC(=O)OC5CCC6(C)C(=CCC7C6CCC6(C)C(C(C)CCCC(C)C)CCC76)C5)CCN(C)CCC(=O)OCCSSCCNC(=O)OC5CCC6(C)C(=CCC7C6CCC6(C)C(C(C)CCCC(C)C)CCC76)C5)CCC4(C)C3CCC12C (stereo not shown) [Lipidoid 304-OCholB]
[2]; 10 mM DTT
  increase in averaged hydrodynamic diameter: 3849.6%
